In patent publication US7468385B2, “Triazoles as oxytocin antagonists” (Laboratoires Serono SA, priority 2001, dated 2008):

Assays:
[1] = molecular target: T1, human Oxytocin (hOT) receptor (Homo sapiens, UniProt P30559); experiment: In vitro competition binding assay on hOT receptor with scintillation proximity assay ([125I]-OVTA); settings: inhibition of 125I-OVTA binding; membranes from HEK293EBNA cells expressing the hOT receptor; read-out: Binding Affinity hOT-R (Ki)
T1 construct: expressed in transfected cells; host or cells: HEK293EBNA (membranes)
T1 sequence (P30559 1-389): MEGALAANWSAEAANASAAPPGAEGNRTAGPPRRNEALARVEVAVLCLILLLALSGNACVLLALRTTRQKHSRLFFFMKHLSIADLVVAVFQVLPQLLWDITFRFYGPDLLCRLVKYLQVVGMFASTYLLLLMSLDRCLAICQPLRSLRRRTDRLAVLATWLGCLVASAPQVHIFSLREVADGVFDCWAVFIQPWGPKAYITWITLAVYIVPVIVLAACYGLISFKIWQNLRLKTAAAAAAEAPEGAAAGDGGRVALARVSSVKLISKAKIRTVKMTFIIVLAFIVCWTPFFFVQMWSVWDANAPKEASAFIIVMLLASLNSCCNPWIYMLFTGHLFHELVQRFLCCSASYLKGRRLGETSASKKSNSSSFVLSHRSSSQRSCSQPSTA
Protocol: a) In vitro Competition Binding Assay on hOT Receptor with Scintillation Proximity Assay (18).
This assay allows to determine the affinity of the test compounds for the human Oxytocin (hOT) receptor. Membranes from HEK293EBNA (cells expressing the hOT receptor) were suspended in buffer containing 50 mM Tris-HCl, pH 7.4, 5 mM MgCl2 and 0.1% BSA (w/v). The membranes ([…]) were mixed with 0.1 mg SPA bead coated with wheat-germ aglutinin (WGA-PVT-Polyethylene Imine beads from Amersham) and […] of the radiolabelled [^125I]-OVTA (OVTA being Omithin Vasoactive, an analogue of OT for competitive binding experiments). Non-specific binding was determined in the presence of 1 μM Oxytocin. The total assay volume was 100 μL. The plates (Corning® NBS plate) were incubated at room temperature for 30 min and counted on a Mibrobeta® plate scintillation counter. Competitive binding was performed in presence of compounds of formula (1) at the following concentrations: 30 μM, 10 μM, 1 μM, 300 nM, 100 nM 10 nM, 1 nM, 100 pM, 10 pM. The competitive binding data were analysed using the iterative, nonlinear, curve-fitting program, “Prism” (GraphPad Software, Inc).
The ability of triazole derivatives of formula (I) to inhibit the binding of ^125I-OVTA to the OT-receptor was assessed using the above described in vitro biological assay. Representative values for some example compounds are given in Table 3 where the binding affinity of the compounds is expressed by the inhibition constant (Ki; μM). From these values, it can be derived that said test compounds according to formula I do show a significant binding to the oxytocin receptor.

hOT receptor = molecular target: T2, hOT receptor (Homo sapiens, UniProt P30559); experiment: Inhibition of oxytocin mediated Ca2+-mobilization by FLIPR in HEK293EBNA cells expressing the hOT receptor; format: cell-based; settings: OT 40 nM, fluo-4 FLIPR, read-out: Inhibition of Ca2+ mobilisation, hOT-R IC50
T2 construct: expressed in transfected cells; host or cells: HEK293EBNA
T2 sequence (P30559 1-389): T1 sequence (P30559 1-389)
From the text: c) Functional Assay No. 1: Inhibition of Oxytocin Mediated Ca^2+-mobilization by FLIPR® (Fluorimetric Imaging Plate Reader)
The action of OT on the OT-receptor triggers a complex cascade of events in the cell which leads to an increase in the intra-cytoplasmic Ca^2+ concentration. This increase in Ca^2+ concentration results from both calcium release from the sarcoplasmic reticulum (calcium stores) into the cytoplasm and from calcium influx from the extracellular space through Ca^2+ channels. This Ca^2+ mobilization into the cytoplasm triggers the contractile machinery of the myometrial cells which leads to uterine contractions (4 and 19).
This assay allows the measurement of the inhibition of OT/OT-R mediated calcium mobilization by test compounds of formula (1).
FLIPR® is a fluorimetric imaging device using a laser (Argon-ion laser) for simultaneous illumination and reading (cooled CCD camera) of each well of a 96-well-plate, thus enabling rapid measurements on a large number of samples.
Preparing the plates: FLIPR-plates were pre-coated with PLL (Poly-L-Lysine) 10 μg/ml+0.1% gelatine to attach HEK293EBNA cells (Human Embryonic Kidney cells expressing the hOT receptor) and incubated for 30 min up to 2 days at 37° C. The cells were plated out into 96-well-plates (60000 cells/well).
Labelling with fluo-4: 50 μg of fluo-4 (Ca2+ sensitive fluorescent dye) were dissolved in 20 μl pluronic acid (20% in DMSO). The dissolved fluo-4 was then diluted in 10 ml DMEM ([…])-F12 culture medium. […]
The relative fluorescence of Fluo (λex=488 nm, λem=590 nm) is then measured by the FLIPR in presence or absence of compounds of formula (I). The fluorescence of the marker being sensitive to the amount of Ca^2+, the Ca^2+ movements can be detected. Then, it can be determined the ability of compounds of formula (I) to antagonize the oxytocin-induced intracellular Ca^2+-mobilization mediated by the oxytocin receptor.
The activities of the triazole derivatives according to formula I were assessed using the above described in vitro biological assay. […]

[2] = system: oxytocin-induced uterine contractions; experiment: In vivo model for inhibition of oxytocin-induced uterine contractions; set-up: species or system rat; settings: dose 10 mg/kg, anaesthetised DES-treated non-pregnant female rats
Protocol: f) In vivo Model for Inhibition of Uterine Contractions
The assay evaluates the biological effect of tested compounds in an in vivo model of preterm labor, premature birth.
Non-pregnant Charles River CD (SD) BR female rats (9-10 weeks old, 200-250 g) were treated at 18 and 24 hours before the experiment with 250 μg/kg, i.p. diethylstilbestrol (DES). For the assay, the animal was anaesthetised with urethane (1.75 g/kg, i.p.) and placed on a homeothermic operating table. The trachea was isolated and cannulated with a suitable polyethylene (PE) tubing. A midline incision at the hypogastrium level was made and one uterine horn exposed, its cephalic end cannulated with a PE240 tubing and, after filling the internal cavity with 0.2 ml of sterile physiological saline, connected to a “Gemini” amplifying/recording system via a P23ID Gould Statham pressure transducer. […]
The contractile response of the uterus to oxytocin was quantified by measuring the intra-uterine pressure and the number of contractions. The effect of the reference and test compounds was evaluated by comparing pre- and post-treatment pressure values. […]
The activities of the triazole derivatives claimed in the Formula I can be assessed using the above described in vivo biological assay. […]

Row | SMILES | Ki [1] | IC50 (hOT receptor) | % Reduction of Uterine Contraction [2]
1 | COc1cccc(-n2c(CCC(=O)NCc3ccccc3OC)nnc2SCc2cccc(Cl)c2)c1 [Example 1, 3-[5-[(3-chlorobenzyl)sulfanyl]-4-(3-methoxyphenyl)-4H-1,2,4-triazol-3-yl]-N-(2-methoxybenzyl)propanamide] | 45 nM | 26 nM | 16.9 ± 5.1%
2 | COc1ccccc1CNC(=O)CCc1nnc(SCc2cccc(C)c2)n1-c1cccc(Cl)c1 [Example 3, 3-{4-(3-chlorophenyl)-5-[(3-methylbenzyl)sulfanyl]-4H-1,2,4-triazol-3-yl}-N-(2-methoxybenzyl)propanamide] | 134 nM | – | –
3 | COCCCn1c(CCC(=O)NCc2ccccc2OC)nnc1SCc1cccc(Cl)c1 [Example 4, 3-[5-[(3-chlorobenzyl)sulfanyl]-4-(3-methoxypropyl)-4H-1,2,4-triazol-3-yl]-N-(2-methoxybenzyl)propanamide] | 326 nM | – | –
4 | COc1ccccc1CNC(=O)CCc1nnc(SCc2cccc(F)c2)n1-c1ccc(C)cc1 [Example 5, 3-[5-[(3-fluorobenzyl)sulfanyl]-4-(4-methylphenyl)-4H-1,2,4-triazol-3-yl]-N-(2-methoxybenzyl)propanamide] | 127 nM | – | –
5 | COc1ccccc1CNC(=O)CCc1nnc(SCc2cccc(C)c2)n1Cc1ccc(C)cc1 [Example 6, N-(2-methoxybenzyl)-3-{4-(4-methylbenzyl)-5-[(3-methylbenzyl)sulfanyl]-4H-1,2,4-triazol-3-yl}propanamide] | 246 nM | – | –
6 | COc1ccccc1CNC(=O)CCc1nnc(SCc2cccc(Cl)c2)n1-c1cccc(C)c1 [Example 8, 3-[5-[(3-chlorobenzyl)sulfanyl]-4-(3-methylphenyl)-4H-1,2,4-triazol-3-yl]-N-(2-methoxybenzyl)propanamide] | 229 nM | – | –
7 | COc1ccccc1CNC(=O)CCc1nnc(SCc2ccccc2)n1-c1ccc(C)cc1 [Example 9, 3-[5-(benzylsulfanyl)-4-(4-methylphenyl)-4H-1,2,4-triazol-3-yl]-N-(2-methoxybenzyl)propanamide] | 205 nM | – | –
8 | COc1ccccc1CNC(=O)CCc1nnc(SCc2ccc(F)cc2)n1-c1cccc(Cl)c1 [Example 11, 3-{4-(3-chlorophenyl)-5-[(4-fluorobenzyl)sulfanyl]-4H-1,2,4-triazol-3-yl}-N-(2-methoxybenzyl)propanamide] | 329 nM | – | –
9 | COc1ccccc1CNC(=O)CCc1nnc(SCc2ccccc2)n1-c1cccc(Cl)c1 [Example 12, 3-[5-(benzylsulfanyl)-4-(3-chlorophenyl)-4H-1,2,4-triazol-3-yl]-N-(2-methoxybenzyl)propanamide] | 439 nM | – | –
10 | CCCCNC(=O)CCc1nnc(SCc2cccc(Cl)c2)n1-c1cccc(Cl)c1 [Example 15, N-butyl-3-[5-[(3-chlorobenzyl)sulfanyl]-4-(3-chlorophenyl)-4H-1,2,4-triazol-3-yl]propanamide] | 245 nM | – | –
11 | COc1cccc(-n2c(CCC(=O)NCc3ccccc3OC)nnc2SCc2cccc(C)c2)c1 [Example 16, N-(2-methoxybenzyl)-3-{4-(3-methoxyphenyl)-5-[(3-methylbenzyl)sulfanyl]-4H-1,2,4-triazol-3-yl}propanamide] | 197 nM | – | –
12 | COc1ccccc1CNC(=O)CCCc1nnc(SCc2cccc(Cl)c2)n1-c1ccccc1 [Example 137, 4-{5-[(3-chlorobenzyl)sulfanyl]-4-phenyl-4H-1,2,4-triazol-3-yl}-N-(2-methoxybenzyl)butanamide] | 2550 nM | 486 nM | –
13 | COc1ccccc1CNC(=O)CCCCc1nnc(SCc2cccc(Cl)c2)n1-c1cccc(Cl)c1 [Example 184, 5-[5-[(3-chlorobenzyl)sulfanyl]-4-(3-chlorophenyl)-4H-1,2,4-triazol-3-yl]-N-(2-methoxybenzyl)pentanamide] | 481 nM | – | –
14 | COc1ccccc1CNC(=O)CCCCc1nnc(SCc2cccc(Cl)c2)n1-c1ccccc1 [Example 185, 5-{5-[(3-chlorobenzyl)sulfanyl]-4-phenyl-4H-1,2,4-triazol-3-yl}-N-(2-methoxybenzyl)pentanamide] | 603 nM | 58 nM | –
15 | COc1ccccc1CNC(=O)CCCCc1nnc(SCc2cccc(C)c2)n1CCc1ccccc1 [Example 189, N-(2-methoxybenzyl)-5-[5-[(3-methylbenzyl)sulfanyl]-4-(2-phenylethyl)-4H-1,2,4-triazol-3-yl]pentanamide] | 515 nM | – | –
